This is an account of results in PubChem BioAssay AID1845207 (Molecular Pharmacology Branch, DTP, NCI, 2023).

The structures appear in SMILES notation. Where “and” joins values, the source holds several entries; their conditions need not be identical. Equal entries are not always repeated. Calls of active or inactive are those of the source. How the source made its calls: active means viability on the fitted dose curve at most 10% of control; inactive means the rest. A value given as a limit tells only on which side of the number the result lay.

The assay concerns NCI-H1876 tumor spheroid viability. Kind of assay: Anticancer human tumor NCI-H1876 cell line growth inhibition.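 On all read-outs here: spheroids exposed to compounds for seven days before the viability read.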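 On viability, T/C: percent of DMSO vehicle control viability so 100% = vehicle.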 Particulars: spheroids with HUVEC and MSC; for viability, T/C: stronger effect = lower value. In a few lines:
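Single agents and combinations were tested on spheroids built from tumor cells plus HUVEC and hMSC, at half-log dilutions starting at or near clinical Cmax, else 10 microM; final DMSO 0.25% (v/v).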

Setting [1] is: curve of first compound, second compound 0.003 µM.

Turning to `CC1COCCN1c1cc(-c2ccnn2C)c2ccnc(-c3ccn[nH]3)c2n1` (stereo not drawn) + COc1cc2c(cc1O)CCNC21CSC2c3c(OC(C)=O)c(C)c4c(c3C(COC1=O)N1C(O)C3Cc5cc(C)c(OC)c(O)c5C(C21)N3C)OCO4, the IC50 is, setting by setting: (curve of first compound, second compound 30 pM) less than 31.6 nM; (curve of first compound, second compound 94.9 pM) less than 31.6 nM; (curve of first compound, second compound 0.0003 µM) less than 31.6 nM; (curve of first compound, second compound 0.000949 µM) less than 31.6 nM; under setting [1], less than 31.6 nM. Besides, the viability, T/C reads like this: (second compound 30 pM, first compound 0.0316 µM) 30.7%; (second compound 30 pM, first compound 0.1 µM) 17.9%; (second compound 30 pM, first compound 0.316 µM) 11.3%; (second compound 30 pM, first compound 1 µM) 4.58%; (second compound 30 pM, first compound 3.16 µM) 3.01%; (second compound 30 pM, first compound 10 µM) 2.83%. The viability, T/C was 17.4% (second compound 94.9 pM, first compound 0.0316 µM); 10.3% (second compound 94.9 pM, first compound 0.1 µM); 6.18% (second compound 94.9 pM, first compound 0.316 µM); 3.39% (second compound 94.9 pM, first compound 1 µM); 2.3% (second compound 94.9 pM, first compound 3.16 µM); 2.27% (second compound 94.9 pM, first compound 10 µM). Also, the viability, T/C is 5.4% (second compound 0.0003 µM, first compound 0.0316 µM); 4.29% (second compound 0.0003 µM, first compound 0.1 µM); 2.95% (second compound 0.0003 µM, first compound 0.316 µM); 2.33% (second compound 0.0003 µM, first compound 1 µM); 2.39% (second compound 0.0003 µM, first compound 3.16 µM); 2.2% (second compound 0.0003 µM, first compound 10 µM). Further, the viability, T/C runs as follows: (second compound 0.000949 µM, first compound 0.0316 µM) 2.56%; (second compound 0.000949 µM, first compound 0.1 µM) 2.32%; (second compound 0.000949 µM, first compound 0.316 µM) 1.67%; (second compound 0.000949 µM, first compound 1 µM) 1.48%; (second compound 0.000949 µM, first compound 3.16 µM) 1.48%; (second compound 0.000949 µM, first compound 10 µM) 2.04%. The viability, T/C (second compound 0.003 µM, first compound 0.0316 µM) was 0.92%; the viability, T/C (second compound 0.003 µM, first compound 0.1 µM) is 1.05%; the viability, T/C (second compound 0.003 µM, first compound 0.316 µM) is 0.72%; the viability, T/C (second compound 0.003 µM, first compound 1 µM) was 0.9%; the viability, T/C (second compound 0.003 µM, first compound 3.16 µM) was 0.88%; the viability, T/C (second compound 0.003 µM, first compound 10 µM) was 0.28%.

As to `COc1ccc([C@@H](O)c2cc(-c3ncnc4cc(N5CCOCC5)ccc34)c(F)cc2Cl)nn1`, the viability, T/C by setting is: (compound 0.0316 µM) 105% and 98% and 103%; (compound 0.1 µM) 104% (2×) and 95.2%; (compound 0.316 µM) 102% and 74.6% and 96.1%; (compound 1 µM) 97.6% and 98%; (compound 3.16 µM) 81.2% and 26.2% and 77.6%. Besides, the outcome (compound 1 µM) was inactive. In addition, the IC50 (curve of compound) was 5500 nM and 1120 nM and 6510 nM.

With `CC[C@@]1(O)C(=O)OCc2c1cc1n(c2=O)Cc2cc3c(CN(C)C)c(O)ccc3nc2-1`, the viability, T/C reads like this: (compound 0.003 µM) 84.5% [middle of 10 runs]; (compound 0.03 µM) 12.1% [middle of 10 runs]; (compound 0.0949 µM) 8% [middle of 10 runs]; (compound 0.3 µM) 3.52% [middle of 10 runs]. Besides, the IC50 (compound alone, run of 11/07/2019) is 7.08 nM [middle of 5 runs] and the IC50 (compound alone, run of 12/16/2019) was 5.61 nM [middle of 5 runs].

As for `O=C(c1cc(Cc2n[nH]c(=O)c3ccccc23)ccc1F)N1CCN(C(=O)C2CC2)CC1` + CC[C@@]1(O)C(=O)OCc2c1cc1n(c2=O)Cc2cc3c(CN(C)C)c(O)ccc3nc2-1, the IC50 is 325 nM under setting [1]; less than 94.9 nM (curve of first compound, second compound 0.00949 µM); less than 94.9 nM (curve of first compound, second compound 0.03 µM); less than 94.9 nM (curve of first compound, second compound 0.0949 µM); less than 94.9 nM (curve of first compound, second compound 0.3 µM). In addition, the viability, T/C (second compound 0.003 µM, first compound 0.0949 µM) is 60.1%; the viability, T/C (second compound 0.003 µM, first compound 0.3 µM) is 49.8%; the viability, T/C (second compound 0.003 µM, first compound 0.949 µM) is 41.9%; the viability, T/C (second compound 0.003 µM, first compound 3 µM) was 30.9%; the viability, T/C (second compound 0.003 µM, first compound 9.49 µM) was 22%; the viability, T/C (second compound 0.003 µM, first compound 30 µM) was 16%. Besides, the viability, T/C reads like this: (second compound 0.00949 µM, first compound 0.0949 µM) 21.2%; (second compound 0.00949 µM, first compound 0.3 µM) 21%; (second compound 0.00949 µM, first compound 0.949 µM) 19.2%; (second compound 0.00949 µM, first compound 3 µM) 20.6%; (second compound 0.00949 µM, first compound 9.49 µM) 35.5%; (second compound 0.00949 µM, first compound 30 µM) 15.7%. In addition, the viability, T/C (second compound 0.03 µM, first compound 0.0949 µM) was 12.3%; the viability, T/C (second compound 0.03 µM, first compound 0.3 µM) is 12.6%; the viability, T/C (second compound 0.03 µM, first compound 0.949 µM) is 13.7%; the viability, T/C (second compound 0.03 µM, first compound 3 µM) was 23.3%; the viability, T/C (second compound 0.03 µM, first compound 9.49 µM) is 18.2%; the viability, T/C (second compound 0.03 µM, first compound 30 µM) is 14.3%. Besides, the viability, T/C by setting is: (second compound 0.0949 µM, first compound 0.0949 µM) 35.7%; (second compound 0.0949 µM, first compound 0.3 µM) 7.72%; (second compound 0.0949 µM, first compound 0.949 µM) 8.21%; (second compound 0.0949 µM, first compound 3 µM) 10%; (second compound 0.0949 µM, first compound 9.49 µM) 12.8%; (second compound 0.0949 µM, first compound 30 µM) 14.4%. Besides, the viability, T/C was 4.06% (second compound 0.3 µM, first compound 0.0949 µM); 3.8% (second compound 0.3 µM, first compound 0.3 µM); 4.04% (second compound 0.3 µM, first compound 0.949 µM); 5.04% (second compound 0.3 µM, first compound 3 µM); 13.5% (second compound 0.3 µM, first compound 9.49 µM); 9.66% (second compound 0.3 µM, first compound 30 µM).
